Consider 21 compounds from patent publication US20240067634A1, “INHIBITORS OF NEF DOWNMODULATION” (priority 2020, published 2024).

One may read the IC50 as the concentration that gives 50% inhibition.

One test deals with V-ATPase-dependent lysosomal acidification. As to the kind of experiment: cells. The format is cell-based, human. The following applies: 24 hr Lysotracker IC50; 1000 nM set as activity threshold (FIG. 11-14); read-out: Lyso IC50. From the text: Determine effect on V-ATPase activity: Plecomacrolides are known inhibitors of V-ATPase that neutralize normally acidified lysosomes. […] Thus, analogs of the disclosure are further characterized by measuring their effects on lysosome acidification.
LysoTracker® is a fluorophore linked to a weak base that is partially protonated at neutral pH. This form of the probe is capable of freely permeating cell membranes of live cells. In acidic compartments, protonation creates a form that was impermeable causing the probe to accumulate inside the lysosome.
Regarding 19-Deoxy-20-ene Baf A1, the IC50 was determined as 341 nM. With 19-Deoxy-21-Methoxy Baf A1, the IC50 worked out at 49.6 nM. With 19-Deoxy-21-allylester Baf A1, the half-maximal inhibitory concentration (IC50) turned out to be 152 nM. As to `C#CCCC(=O)O[C@H]1C[C@@H](O[C@@H]2C[C@](O)([C@@H](C)[C@H](O)[C@H](C)[C@H]3OC(=O)/C(OC)=C/C(C)=C/[C@@H](C)[C@@H](O)[C@@H](CC)[C@@H](O)[C@H](C)C/C(C)=C/C=C/[C@@H]3OC)O[C@H](/C=C/C)[C@H]2C)O[C@@H](C)[C@@H]1OC(N)=O` [23-Alkyne CMA, 3′-pent-4-ynoate Concanamycins A-C], the IC50 stood at 1.1 nM.

As for `C#CCCC(=O)O[C@H]1C[C@@H](O[C@@H]2C[C@](O)([C@@H](C)[C@H](O)[C@H](C)[C@H]3OC(=O)/C(OC)=C/C(C)=C/[C@@H](C)[C@@H](O)[C@@H](CC)[C@@H](O)[C@H](C)C/C(C)=C/C=C/[C@@H]3OC)O[C@H](/C=C/C)[C@H]2C)O[C@@H](C)[C@@H]1OC(N)=O` [23-Alkyne CMC, 3′-pent-4-ynoate Concanamycins A-C], the IC50 was found to be 5.72 nM.

The test is the same for the next values; noted with them: Homo sapiens, PBMC, 24 h, 24 hr Lysotracker IC50; 1000 nM set as activity threshold (FIG. 11-14); read-out: Lyso IC50.
For `C/C=C/[C@H]1O[C@@H]([C@@H](C)[C@H](O)[C@H](C)[C@H]2OC(=O)/C(O)=C/C(C)=C/[C@@H](C)[C@@H](O)[C@@H](CC)[C@@H](O)[C@H](C)C/C(C)=C/C=C/[C@@H]2OC)C[C@@H](O)[C@@H]1C` [2-hydroxy-21-deoxy CMF, 21-deoxy-2-hydroxy-Concanamycin F], the IC50 is at least 1000 nM. Still for that read-out and setting: then `C#CCCC(=O)O[C@@H]1[C@H](C)/C=C(C)/C=C(\OC)C(=O)O[C@H]([C@@H](C)[C@@H](O)[C@H](C)[C@@]2(O)C[C@@H](OC(=O)c3ccc(C4(C(F)(F)F)N=N4)cc3)[C@H](C)[C@@H](C(C)C)O2)[C@@H](OC)/C=C/C=C(\C)C[C@@H]1C` [7 Alkyne 21-Y Bafilomycin Probe, 21-(3-(trifluoromethyl)-3H-diazirin-3-yl)benzoate-7-pent-4-ynoate-Bafilomycin], with at least 1000 nM; and `CO/C1=C\C(C)=C\[C@@H](C)[C@@H](O)[C@@H](C)C/C(C)=C/C=C/[C@H](OC)[C@@H]([C@@H](C)[C@@H](O)[C@H](C)[C@H]2C[C@@H](O)[C@H](C)[C@@H](C(C)C)O2)OC1=O` [19-Deoxy Baf A1, 19-deoxy Bafilomycin], with 111 nM; and `C#CCCC(=O)O[C@@H]1C[C@H]([C@@H](C)[C@H](O)[C@H](C)[C@H]2OC(=O)/C(OC)=C/C(C)=C/[C@@H](C)[C@@H](O)[C@@H](C)C/C(C)=C/C=C/[C@@H]2OC)OC(C(C)C)[C@H]1C` (stereo partly drawn) [19-Deoxy-21(4-Pentynoate) Baf A1, 19-deoxy-21-pent-4-ynoate Bafilomycin], with 76.4 nM.

In the case of `C#CCCC(=O)O[C@@H]1C[C@](O)([C@@H](C)[C@H](O)[C@H](C)[C@H]2OC(=O)/C(OC)=C/C(C)=C/[C@@H](C)[C@@H](O)[C@@H](C)C/C(C)=C/C=C/[C@@H]2OC)O[C@H](C(C)C)[C@H]1C` [21 Alkyne Bafilomycin Probe, 21-pent-4-ynoate Bafilomycin], the IC50 amounted to 29.1 nM. As for `C#CCCC1(CCC(=O)O[C@@H]2C[C@](O)([C@@H](C)[C@H](O)[C@H](C)[C@H]3OC(=O)/C(OC)=C/C(C)=C/[C@@H](C)[C@@H](O)[C@@H](C)C/C(C)=C/C=C/[C@@H]3OC)O[C@H](C(C)C)[C@H]2C)N=N1` [21 Dual Linear Bafilomycin Probe, 21-(3-(3-(but-3-yn-1-yl)-3H-diazirin-3-yl)propanoate) Bafilomycin], the IC50 was 28.3 nM. Regarding `C/C=C/[C@H]1O[C@@H]([C@@H](C)[C@H](O)[C@H](C)[C@H]2OC(=O)/C(OC)=C/C(C)=C/[C@@H](C)[C@@H](O)[C@@H](CC)[C@@H](O)[C@H](C)C/C(C)=C/C=C/[C@@H]2OC)C[C@@H](O[C@@H]2C[C@H](O)[C@@H](O)[C@H](C)O2)[C@@H]1C` [21-Deoxy CMC, 21-deoxy CMC], the IC50 was found to be 7.04 nM.

Consider `CCCCCCCCC(=O)O[C@@H]1C[C@](O)([C@@H](C)[C@H](O)[C@H](C)[C@H]2OC(=O)/C(OC)=C/C(C)=C/[C@@H](C)[C@@H](O)[C@@H](C)C/C(C)=C/C=C/[C@@H]2OC)O[C@H](C(C)C)[C@H]1C` [21-Nonanoate Baf A1, 21-nonanoate Bafilomycin], for which the IC50 was found to be 146 nM. Turning to `C/C=C/CC(=O)O[C@@H]1C[C@](O)([C@@H](C)[C@H](O)[C@H](C)[C@H]2OC(=O)/C(OC)=C/C(C)=C/[C@@H](C)[C@@H](O)[C@@H](C)C/C(C)=C/C=C/[C@@H]2OC)O[C@H](C(C)C)[C@H]1C` [21-Penta-3-enoate Baf A1, 21-pent-3-enoate Bafilomycin], the IC50 was 60.2 nM. `CCCCC(=O)O[C@@H]1C[C@](O)([C@@H](C)[C@H](O)[C@H](C)[C@H]2OC(=O)/C(OC)=C/C(C)=C/[C@@H](C)[C@@H](O)[C@@H](C)C/C(C)=C/C=C/[C@@H]2OC)O[C@H](C(C)C)[C@H]1C` [21-Pentanoate Baf A1, 21-pentanone Bafilomycin]: the IC50 is 62.3 nM. As for `CO/C1=C\C(C)=C\[C@@H](C)[C@@H](O)[C@@H](C)C/C(C)=C/C=C/[C@H](OC)[C@@H]([C@@H](C)[C@@H](O)[C@H](C)[C@H]2C[C@@H](OC(=O)c3ccc(C4(C(F)(F)F)N=N4)cc3)[C@H](C)[C@@H](C(C)C)O2)OC1=O` [21-Y Bafilomycin Probe, 21-(3-(trifluoromethyl)-3H-diazirin-3-yl)benzoate Bafilomycin], the IC50 is at least 1000 nM. Same read-out and setting: for `C=C/C=C/C(=O)O[C@@H]1C[C@](O)([C@@H](C)[C@H](O)[C@H](C)[C@H]2OC(=O)/C(OC)=C/C(C)=C/[C@@H](C)[C@@H](O)[C@@H](C)C/C(C)=C/C=C/[C@@H]2OC)O[C@H](C(C)C)[C@H]1C` [21-penta-2,4-dienoate Baf A1, 21-penta-2,4-dienoate Bafilomycin] the value was 25.1 nM. Same read-out and setting: then `C#CCCC(=O)O[C@H]1C[C@@H](O[C@@H]2C[C@](O)([C@@H](C)[C@H](O)[C@H](C)[C@H]3OC(=O)/C(OC)=C/C(C)=C/[C@@H](C)[C@@H](O)[C@@H](C)[C@@H](O)[C@H](C)C/C(C)=C/C=C/[C@@H]3OC)O[C@H](/C=C/C)[C@H]2C)O[C@@H](C)[C@@H]1OC(N)=O` [23-Alkyne CMB, 3′-pent-4-ynoate Concanamycins A-C], with 5.75 nM.

Still in this test, the particulars now being: Homo sapiens, PBMC, 24 h; read-out: Lyso IC50.
Turning to `CO/C1=C\C(C)=C\[C@@H](C)C(=O)[C@@H](C)C/C(C)=C/C=C/[C@H](OC)[C@@H]([C@@H](C)[C@@H](O)[C@H](C)[C@@]2(O)CC(=O)[C@H](C)[C@@H](C(C)C)O2)OC1=O` [7,21-Dione Baf A1, 7,21-dione Bafilomycin], the IC50 was at least 1000 nM.

As for `CO/C1=C\C(C)=C\[C@@H](C)C(=O)[C@@H](C)C/C(C)=C/C=C/[C@H](OC)[C@@H]([C@@H](C)[C@@H](O)[C@H](C)[C@@]2(O)C[C@@H](O)[C@H](C)[C@@H](C(C)C)O2)OC1=O` [7-One Baf A1, 7-one Bafilomycin], the IC50 is at least 1000 nM.

`CO/C1=C\C(C)=C\[C@@H](C)[C@@H](O)[C@@H](C)C/C(C)=C/C=C/[C@H](OC)[C@@H]([C@@H](C)[C@@H](O)[C@H](C)[C@@]2(O)C[C@@H](OC(C)=O)[C@H](C)[C@@H](C(C)C)O2)OC1=O` [21-Acetyl Baf, 21-Acetyl Bafilomycin]: the IC50 came out at 22.7 nM.
